This is an account of results in ChEMBL document CHEMBL1137167, “Potent inhibition of checkpoint kinase activity by a hymenialdisine-derived indoloazepine” (Bioorg Med Chem Lett, 2004).

Assay [1] deals with Casein kinase I isoform delta (Homo sapiens, UniProt P48730). As to the kind of experiment: In vitro inhibitory concentration against human casein kinase 1 delta (CK1 delta) by using [gamma-33P]-ATP] as radioligand.
The target of assay [2] is Protein kinase C beta type (Homo sapiens, UniProt P05771). As to the kind of experiment: In vitro inhibitory concentration against human protein kinase C beta-2 (PKCbetaII) by using [gamma-33P]-ATP] as radioligand.
Chain of Protein kinase C beta type (P05771 whole entry): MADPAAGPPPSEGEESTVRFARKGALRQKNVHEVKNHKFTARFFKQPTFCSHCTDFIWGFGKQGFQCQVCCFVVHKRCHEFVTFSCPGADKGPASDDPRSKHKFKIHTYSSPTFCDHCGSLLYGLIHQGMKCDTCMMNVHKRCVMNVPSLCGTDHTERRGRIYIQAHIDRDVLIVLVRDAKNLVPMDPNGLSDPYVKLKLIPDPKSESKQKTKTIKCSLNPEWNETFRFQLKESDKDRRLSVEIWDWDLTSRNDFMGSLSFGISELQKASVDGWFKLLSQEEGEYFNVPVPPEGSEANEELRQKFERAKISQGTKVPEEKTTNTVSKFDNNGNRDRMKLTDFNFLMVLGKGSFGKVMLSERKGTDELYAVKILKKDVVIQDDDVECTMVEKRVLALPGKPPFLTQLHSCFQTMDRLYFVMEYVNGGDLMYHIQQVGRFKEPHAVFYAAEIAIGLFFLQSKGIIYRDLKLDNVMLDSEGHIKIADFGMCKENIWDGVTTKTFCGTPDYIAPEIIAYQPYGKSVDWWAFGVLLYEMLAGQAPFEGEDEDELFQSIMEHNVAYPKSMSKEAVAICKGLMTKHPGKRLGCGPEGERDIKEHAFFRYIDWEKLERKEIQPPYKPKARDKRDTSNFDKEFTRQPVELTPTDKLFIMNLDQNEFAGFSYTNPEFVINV
Assay [3] deals with Protein kinase C alpha type (Homo sapiens, UniProt P17252). The assay is described as follows: In vitro inhibitory concentration against human protein kinase C alpha (PKCa) by using [gamma-33P]-ATP] as radioligand.
Assay [4] addresses Casein kinase II subunit alpha (Homo sapiens, UniProt P68400). As to the kind of experiment: In vitro inhibitory concentration against human casein kinase 2 (CK2) by using [gamma-33P]-ATP] as radioligand.
In assay [5] the target is T1, Serine/threonine-protein kinase Chk1 (Homo sapiens, UniProt O14757).
T1 sequence (O14757 whole entry): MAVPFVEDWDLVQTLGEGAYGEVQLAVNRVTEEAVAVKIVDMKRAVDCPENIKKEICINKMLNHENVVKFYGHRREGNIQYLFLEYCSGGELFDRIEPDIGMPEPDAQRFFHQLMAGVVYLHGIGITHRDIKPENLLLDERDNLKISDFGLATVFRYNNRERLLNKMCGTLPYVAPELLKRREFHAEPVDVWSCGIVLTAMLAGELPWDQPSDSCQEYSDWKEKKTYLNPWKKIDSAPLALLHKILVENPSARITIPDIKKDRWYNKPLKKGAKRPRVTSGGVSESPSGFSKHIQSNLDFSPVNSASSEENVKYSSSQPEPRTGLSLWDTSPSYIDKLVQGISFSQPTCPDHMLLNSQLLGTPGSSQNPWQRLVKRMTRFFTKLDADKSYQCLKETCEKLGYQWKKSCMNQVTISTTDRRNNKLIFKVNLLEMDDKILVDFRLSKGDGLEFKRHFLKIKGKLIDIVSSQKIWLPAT
As to the kind of experiment: In vitro inhibitory concentration against checkpoint kinase 1 (Chk1) by using [gamma-33P]-ATP] as radioligand.

Assay [6] concerns the target Serine/threonine-protein kinase Chk2 (Homo sapiens, UniProt O96017). The assay is described as follows: In vitro inhibitory concentration against checkpoint kinase 2 (Chk2) by using [gamma-33P]-ATP] as radioligand.

Chain of Serine/threonine-protein kinase Chk2 (O96017 whole entry): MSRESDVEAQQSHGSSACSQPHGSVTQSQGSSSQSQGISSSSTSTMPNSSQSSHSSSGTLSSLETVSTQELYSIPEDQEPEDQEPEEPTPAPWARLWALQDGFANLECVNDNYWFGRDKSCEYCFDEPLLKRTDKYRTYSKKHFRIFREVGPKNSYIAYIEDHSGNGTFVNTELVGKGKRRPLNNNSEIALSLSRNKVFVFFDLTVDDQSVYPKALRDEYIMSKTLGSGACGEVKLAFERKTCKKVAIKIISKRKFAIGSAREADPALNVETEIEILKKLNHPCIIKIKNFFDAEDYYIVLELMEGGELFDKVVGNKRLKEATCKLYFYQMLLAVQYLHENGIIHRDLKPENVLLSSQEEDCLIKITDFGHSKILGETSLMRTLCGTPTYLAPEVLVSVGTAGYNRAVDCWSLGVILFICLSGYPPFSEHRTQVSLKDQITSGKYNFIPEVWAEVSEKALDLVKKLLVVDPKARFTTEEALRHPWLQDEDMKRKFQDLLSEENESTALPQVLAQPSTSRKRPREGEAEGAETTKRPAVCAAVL
Chain of Casein kinase II subunit alpha (P68400 whole entry): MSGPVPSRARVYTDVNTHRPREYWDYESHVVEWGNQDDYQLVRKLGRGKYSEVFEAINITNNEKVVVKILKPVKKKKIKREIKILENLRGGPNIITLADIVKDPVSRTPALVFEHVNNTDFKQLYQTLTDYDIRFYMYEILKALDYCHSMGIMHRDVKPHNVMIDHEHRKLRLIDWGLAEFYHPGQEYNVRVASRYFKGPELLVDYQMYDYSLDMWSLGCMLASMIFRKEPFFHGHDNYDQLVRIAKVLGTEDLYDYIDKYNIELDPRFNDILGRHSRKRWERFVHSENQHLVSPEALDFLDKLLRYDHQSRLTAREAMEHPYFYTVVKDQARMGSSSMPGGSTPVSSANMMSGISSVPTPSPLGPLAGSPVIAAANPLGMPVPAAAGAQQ
Chain of Casein kinase I isoform delta (P48730 whole entry, canonical isoform): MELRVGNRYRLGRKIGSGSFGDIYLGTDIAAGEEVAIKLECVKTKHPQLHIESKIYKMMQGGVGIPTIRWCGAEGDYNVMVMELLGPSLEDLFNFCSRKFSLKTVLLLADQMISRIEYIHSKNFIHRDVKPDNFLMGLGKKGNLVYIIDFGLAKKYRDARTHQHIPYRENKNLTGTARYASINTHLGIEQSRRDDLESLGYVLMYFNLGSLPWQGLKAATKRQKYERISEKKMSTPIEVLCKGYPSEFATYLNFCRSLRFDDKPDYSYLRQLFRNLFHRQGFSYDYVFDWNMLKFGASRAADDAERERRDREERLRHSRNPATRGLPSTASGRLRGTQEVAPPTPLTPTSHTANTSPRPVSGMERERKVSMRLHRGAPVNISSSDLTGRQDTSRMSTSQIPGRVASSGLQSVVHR

Regarding `Nc1nc(C2=C3C(=Nc4ccccc43)C(=O)NCC2)c(O)[nH]1`, the IC50 (usually the concentration that gives 50% inhibition) in assay [1] is 1350 nM; in assay [2] it was 3380 nM; in assay [3] it was 2540 nM; in assay [4] it was over 10000 nM; in assay [5], 237 nM; in assay [6], 8 nM.

Consider `NC1=N/C(=C2/CCNC(=O)c3[nH]ccc32)C(=O)N1` [DEBROMOHYMENIALDISINE], for which the IC50 in assay [5] came out at 725 nM; in assay [6] it was 183 nM.

Consider `NC1=NC(=O)/C(=C2\CCNC(=O)c3[nH]c(Br)cc32)N1` [HYMENIALDISINE], for which the IC50 turned out to be 35 nM in assay [1], 7000 nM in assay [4], 1950 nM in assay [5] and 42 nM in assay [6].
